Source: PubChem BioAssay AID224 (DTP/NCI, 2004)
“And” between values parts separate entries of the source, which are not always exact repeats. Identical values can stand only once. Toxic doses and inconclusive results are not listed.

Tested on: P335 leukemia ip, BDF1 mice, survival T/C %
Experiment: NCI In Vivo Anticancer Drug Screen. Data for tumor model P335 Leukemia (intraperitoneal) in B6D2F1 (BDF1) mice
Conditions: endpoint: mean survival time, higher = longer survival
Protocol: The antitumor activity of compounds was measured in mice bearing transplantable tumors. Survival or tumor size were measured and the results are expressed as the measurement made in the treated group (T) divided by the measurement made in the vehicle treated control group (C). The tumor model used in this assay is P335 Leukemia (intraperitoneal) in B6D2F1 (BDF1) mice

[1] = dose: 12.5 mg/kg/injection, schedule: Q01DX Z (sc), vehicle: steriod suspending solution
[2] = dose: 25.0 mg/kg/injection, schedule: Q01DX Z (sc), vehicle: steriod suspending solution
[3] = dose: 50.0 mg/kg/injection, schedule: Q01DX Z (sc), vehicle: steriod suspending solution
[4] = dose: 100.0 mg/kg/injection, schedule: Q01DX Z (sc), vehicle: steriod suspending solution
[5] = dose: 12.5 mg/kg/injection, schedule: Q01DX Z (ip), vehicle: saline
[6] = dose: 100.0 mg/kg/injection, schedule: Q01DX Z (ip), vehicle: saline
[7] = dose: 12.5 mg/kg/injection, schedule: Q01DX Z (ip), vehicle: carboxymethylcellulose (CMC)
[8] = dose: 25.0 mg/kg/injection, schedule: Q01DX Z (ip), vehicle: carboxymethylcellulose (CMC)
[9] = dose: 50.0 mg/kg/injection, schedule: Q01DX Z (ip), vehicle: carboxymethylcellulose (CMC)
[10] = dose: 25.0 mg/kg/injection, schedule: Q01DX Z (ip), vehicle: water
[11] = dose: 500.0 mg/kg/injection, schedule: Q01DX Z (ip), vehicle: saline
[12] = dose: 3.1 mg/kg/injection, schedule: Q01DX Z (ip), vehicle: carboxymethylcellulose (CMC)
[13] = dose: 6.25 mg/kg/injection, schedule: Q01DX Z (ip), vehicle: carboxymethylcellulose (CMC)

C[C@]12C=CC(=O)C=C1CC[C@@H]1[C@@H]2C(=O)C[C@@]2(C)[C@H]1CC[C@]2(O)C(=O)CO
T/C [1]: 101 % of control
T/C [2]: 108 % of control
T/C [3]: 104 % of control
T/C [4]: 108 % of control

CN(N=O)C(=O)NC(C=O)C(O)C(O)C(O)CO (stereo not given)
T/C (dose: 6.25 mg/kg/injection, schedule: Q01DX Z (ip), vehicle: saline): 96 % of control
T/C [5]: 112 % of control
T/C (dose: 25.0 mg/kg/injection, schedule: Q01DX Z (ip), vehicle: saline): 113 % of control
T/C [6]: 151 % of control

S=P(N1CCOCC1)(N1CC1)N1CC1
T/C [7]: 101 % of control
T/C [8]: 93 % of control

N#CCSc1ncnc2nc[nH]c12
T/C [9]: 93 % of control
T/C (dose: 100.0 mg/kg/injection, schedule: Q01DX Z (ip), vehicle: carboxymethylcellulose (CMC)): 93 % of control
T/C (dose: 200.0 mg/kg/injection, schedule: Q01DX Z (ip), vehicle: methylcellulose (MC)): 91 % of control

O=C(Nc1ccc(NC2=NCCN2)cc1)c1ccc(C(=O)Nc2ccc(NC3=NCCN3)cc2)cc1
T/C (dose: 4.0 mg/kg/injection, schedule: Q01DX Z (ip), vehicle: saline): 175 % of control
T/C (dose: 8.0 mg/kg/injection, schedule: Q01DX Z (ip), vehicle: saline): 208 % of control
T/C (dose: 16.0 mg/kg/injection, schedule: Q01DX Z (ip), vehicle: saline): 170 % of control
T/C (dose: 32.0 mg/kg/injection, schedule: Q01DX Z (ip), vehicle: saline): 91 % of control

Nc1ncnc2c1ccn2C1OC(CO)C(O)C1O (stereo not given)
T/C (dose: 0.08 mg/kg/injection, schedule: Q01DX Z (ip), vehicle: carboxymethylcellulose (CMC)): 110 % of control
T/C (dose: 0.16 mg/kg/injection, schedule: Q01DX Z (ip), vehicle: carboxymethylcellulose (CMC)): 97 % of control
T/C (dose: 0.31 mg/kg/injection, schedule: Q01DX Z (ip), vehicle: carboxymethylcellulose (CMC)): 95 % of control
T/C (dose: 0.32 mg/kg/injection, schedule: Q01DX Z (ip), vehicle: carboxymethylcellulose (CMC)): 121 % of control
T/C (dose: 1.25 mg/kg/injection, schedule: Q01DX Z (ip), vehicle: carboxymethylcellulose (CMC)): 93 % of control

CCCCCCCCCCCCNCCCCCCCCCCCC
T/C (dose: 3.75 mg/kg/injection, schedule: Q01DX Z (ip), vehicle: carboxymethylcellulose (CMC)): 91 % of control
T/C (dose: 7.5 mg/kg/injection, schedule: Q01DX Z (ip), vehicle: carboxymethylcellulose (CMC)): 115 % of control
T/C (dose: 15.0 mg/kg/injection, schedule: Q01DX Z (ip), vehicle: carboxymethylcellulose (CMC)): 92 % of control
T/C (dose: 30.0 mg/kg/injection, schedule: Q01DX Z (ip), vehicle: carboxymethylcellulose (CMC)): 88 % of control

Cn1cnc([N+](=O)[O-])c1Sc1nc(N)nc2nc[nH]c12
T/C (dose: 0.25 mg/kg/injection, schedule: Q01DX Z (ip), vehicle: carboxymethylcellulose (CMC)): 93 % of control

COS(C)(=O)=O
T/C [10]: 87 % of control
T/C (dose: 50.0 mg/kg/injection, schedule: Q01DX Z (ip), vehicle: water): 101 % of control
T/C (dose: 100.0 mg/kg/injection, schedule: Q01DX Z (ip), vehicle: water): 101 % of control

Oc1cc(CN(CCCl)CCCl)c(O)cc1CN(CCCl)CCCl
T/C (dose: 0.24 mg/kg/injection, schedule: Q01DX Z (sc), vehicle: steriod suspending solution): 95 % of control
T/C (dose: 0.47 mg/kg/injection, schedule: Q01DX Z (sc), vehicle: steriod suspending solution): 109 % of control
T/C (dose: 0.94 mg/kg/injection, schedule: Q01DX Z (sc), vehicle: steriod suspending solution): 103 % of control
T/C (dose: 1.87 mg/kg/injection, schedule: Q01DX Z (sc), vehicle: steriod suspending solution): 104 % of control
T/C (dose: 7.5 mg/kg/injection, schedule: Q01DX Z (sc), vehicle: steriod suspending solution): 87 % of control

CC(=O)N(C)C
T/C (dose: 250.0 mg/kg/injection, schedule: Q01DX Z (ip), vehicle: saline): 95 % of control
T/C [11]: 110 % of control
T/C (dose: 1000.0 mg/kg/injection, schedule: Q01DX Z (ip), vehicle: saline): 92 % of control
T/C (dose: 2000.0 mg/kg/injection, schedule: Q01DX Z (ip), vehicle: saline): 90 % of control

Cn1cnc([N+](=O)[O-])c1Sc1ncnc2nc[nH]c12
T/C [7]: 89 % of control
T/C [8]: 105 % of control
T/C [9]: 115 % of control

CN(Cc1cnc2nc(N)nc(N)c2n1)c1ccc(C(=O)N[C@@H](CCC(=O)O)C(=O)O)cc1
T/C (dose: 0.31 mg/kg/injection, schedule: Q01DX Z (ip), vehicle: other): 110 % of control
T/C (dose: 3.0 mg/kg/injection, schedule: Q01DX Z (ip), vehicle: other): 88 % of control

CSc1ncnc2c1ncn2C1OC(CO)C(O)C1O (stereo not given)
T/C [12]: 93 % of control
T/C [13]: 110 % of control
T/C [8]: 179 % of control
T/C [9]: 104 % of control

Clc1ccc(C(c2ccccc2Cl)C(Cl)Cl)cc1 (stereo not given)
T/C [1]: 96 % of control
T/C [2]: 96 % of control
T/C [3]: 97 % of control
T/C [4]: 92 % of control

CSc1ncnc2nc[nH]c12
T/C [7]: 96 % of control
T/C [9]: 90 % of control
T/C (dose: 50.0 mg/kg/injection, schedule: Q01DX Z (ip), vehicle: methylcellulose (MC)): 87 % of control

CN(C)c1nc(N(C)C)nc(N(C)C)n1
T/C (dose: 31.25 mg/kg/injection, schedule: Q01DX Z (ip), vehicle: carboxymethylcellulose (CMC)): 113 % of control
T/C (dose: 62.5 mg/kg/injection, schedule: Q01DX Z (ip), vehicle: carboxymethylcellulose (CMC)): 111 % of control
T/C (dose: 125.0 mg/kg/injection, schedule: Q01DX Z (ip), vehicle: carboxymethylcellulose (CMC)): 113 % of control
T/C (dose: 500.0 mg/kg/injection, schedule: Q01DX Z (ip), vehicle: carboxymethylcellulose (CMC)): 111 % of control
T/C (dose: 1000.0 mg/kg/injection, schedule: Q01DX Z (ip), vehicle: carboxymethylcellulose (CMC)): 93 % of control

O=c1[nH]cc(F)c(=O)[nH]1
T/C (dose: 0.78 mg/kg/injection, schedule: Q01DX Z (ip), vehicle: saline): 103 % of control
T/C (dose: 2.34 mg/kg/injection, schedule: Q01DX Z (ip), vehicle: saline): 123 % of control
T/C (dose: 4.68 mg/kg/injection, schedule: Q01DX Z (ip), vehicle: saline): 118 % of control
T/C (dose: 9.35 mg/kg/injection, schedule: Q01DX Z (ip), vehicle: saline): 113 % of control
T/C [5]: 100 % of control
T/C (dose: 18.7 mg/kg/injection, schedule: Q01DX Z (ip), vehicle: saline): 108 % of control
T/C [6]: 93 % of control

C1CN1c1nc(N2CC2)nc(N2CC2)n1
T/C (dose: 0.9 micrograms/kg/injection, schedule: Q01DX Z (ip), vehicle: saline): 87 % of control
T/C (dose: 1.9 micrograms/kg/injection, schedule: Q01DX Z (ip), vehicle: saline): 90 % of control
T/C (dose: 7.8 micrograms/kg/injection, schedule: Q01DX Z (ip), vehicle: saline): 90 % of control and 114 % of control

O=C(Nc1ccc(C2=NCCCN2)cc1)c1ccc(C(=O)Nc2ccc(C3=NCCCN3)cc2)cc1
T/C (dose: 0.4 mg/kg/injection, schedule: Q01DX Z (ip), vehicle: water): 98 % of control
T/C (dose: 1.6 mg/kg/injection, schedule: Q01DX Z (ip), vehicle: water): 154 % of control
T/C (dose: 3.1 mg/kg/injection, schedule: Q01DX Z (ip), vehicle: water): 207 % of control

CN(C)CC(=O)c1ccc(O)c(O)c1
T/C (dose: 15.6 mg/kg/injection, schedule: Q01DX Z (ip), vehicle: saline): 103 % of control
T/C (dose: 31.25 mg/kg/injection, schedule: Q01DX Z (ip), vehicle: saline): 109 % of control
T/C (dose: 62.5 mg/kg/injection, schedule: Q01DX Z (ip), vehicle: saline): 113 % of control
T/C (dose: 125.0 mg/kg/injection, schedule: Q01DX Z (ip), vehicle: saline): 109 % of control and 119 % of control
T/C [11]: 89 % of control

CN(C)c1ccc(/C=C/c2ccnc3ccccc23)cc1
T/C (dose: 1.6 mg/kg/injection, schedule: Q01DX Z (ip), vehicle: carboxymethylcellulose (CMC)): 94 % of control
T/C [12]: 89 % of control
T/C (dose: 6.2 mg/kg/injection, schedule: Q01DX Z (ip), vehicle: water): 100 % of control
T/C [13]: 90 % of control and 105 % of control
T/C (dose: 12.5 mg/kg/injection, schedule: Q01DX Z (ip), vehicle: water): 95 % of control
T/C [10]: 92 % of control
T/C [9]: 118 % of control
